According to patent US20250250229A1, “ARYLTHIO DERIVATIVES WITH PHARMACOLOGICAL ACTIVITY” (IRIDEA S.R.L., priority 2022, published 2025):

What was measured:
rat aorta rings = experiment: Ex vivo assay of anti-angiogenic activity on rat aorta rings (VEGF-induced sprouting); assay type: cell-based; details: VEGF 30 ng/mL, compound 100 μM, counted after 6 days' incubation; VEGF alone 17 ± 4
Method: Ex Vivo Assays of Anti-Angiogenic Activity on Rat Aorta Rings
Thoracic aortas obtained from 5- to 10-week-old male rats were cut into rings measuring about 1 mm. The rings were placed on the base of a 24-well plate (positioning the luminal axis parallel to the base of the well), and incubated with a fibrin-polymerising solution. After 5 min, VEGF (30 ng/mL) was added to the wells in an appropriate culture medium in the presence or absence of the compounds according to the invention at the concentration of 100 μM. The medium was changed three times a week as from day 3. The angiogenic response was measured by counting the number of new vessels that sprouted over time (Table 1). The endothelial filaments were counted after 6 days' incubation.

[1] = tested on: chorioallantoic membrane (CAM); experiment: In vivo assay on chorioallantoic membrane (CAM), VEGF165-induced neovascularisation; set-up: species or system hen; details: day 14, VEGF165 alone = 100
Method: In Vivo Assays on Chorioallantoic Membrane (CAM)
42 fertilised hens' eggs were disinfected with a 20% ethanol solution and incubated at a temperature of 37-38° C. and a humidity of 40-60% in a rotary egg incubator. The eggs were positioned horizontally and incubated for the next 11 days to promote embryo development.
On day 11, the position of the CAM was identified by candling for 36 eggs, the air chamber was removed, and slits made in the shell in order to position sterile paper filters saturated with the effectors at different concentrations (V=2.5 uL) on the CAM. On day 14, CAMs were photographed with a stereomicroscope (Carl Zeiss Vision GmbH). Quantitative analysis was conducted (count of vessels leading from the filter) by skeletonizing the images and using AngioTool64 0.6a software, and the percentage of neovascularisation at the various concentrations of effectors was determined (Table 2).

[2] = tested on: neutrophil and macrophage recruitment; experiment: In vivo anti-inflammatory activity test, P. aeruginosa RP73 lung infection, BALF cell analysis; set-up: species or system C57Bl/6N mice; details: 12 mg/kg subcutaneous daily, BALF six days after infection, compared with carrier only
Method: In Vivo Anti-Inflammatory Activity Test Immunocompetent C57Bl/6N male mice (8-10 weeks) were infected with strains of P. aeruginosa RP73 (4-6×10^5 CFU, Colony Forming Units), incorporated in agar microbeads. The microbeads were prepared by following the procedures described in the literature (Bayes H K, Ritchie N, Irvine S, Evans T J. A murine model of early Pseudomonas aeruginosa lung disease with transition to chronic infection. Sci Rep. 2016 Nov. 2; 6:35838. doi: 10.1038/srep35838), and they were administered to the mice by intratracheal injection. Subcutaneous administration of the compounds according to the invention at the concentration of 12 mg/kg, or of the carrier, was conducted on the mice 18 hours before inoculation of the bacterium, and repeated daily for 6 days. The general state of health of the mice was analysed once or twice a day throughout the duration of the experiment. Six days after infection, the mice were euthanised by carbon dioxide inhalation. Bronchoalveolar lavage fluid analysis (BALF) indicated a significant reduction in the number of neutrophils in the treated mice compared with those treated with the carrier only.

[3] = VEGF165 0.1 ug + compound 0.0001 ug on filter
[4] = VEGF165 0.1 ug + compound 0.001 ug on filter
[5] = VEGF165 0.1 ug + compound 0.01 ug on filter
[6] = VEGF165 0.1 ug + compound 0.1 ug on filter
[7] = VEGF165 0.1 ug + compound 1 ug on filter

| Molecule | Endothelial filaments (standardised for the number of rings) (rat aorta rings) | Vascularisation (%) [1, 3] [%] | Vascularisation (%) [1, 4] [%] | Vascularisation (%) [1, 5] [%] | Vascularisation (%) [1, 6] [%] | Vascularisation (%) [1, 7] [%] | Macrophages (%) [2] [%] | Neutrophils (%) [2] [%] | Total cells (%) [2] [%] |
| --- | --- | --- | --- | --- | --- | --- | --- | --- | --- |
| CC(C)(C)c1cc(NC(=O)CCN=C(N)N)c(SCc2ccc3ccccc3c2)c(NC(=O)CCN=C(N)N)c1 [IRI-N-19004, N,N′-(5-(tert-butyl)-2-((naphthalen-2-ylmethyl)thio)-1,3-phenylene)bis(3-((diaminomethylene)amino)propanamide)] | 1.2 ± 0.5 | 38 | 33 | 24 | 19 | 8 | −5 ± 4 | −58 ± 8 | −56 ± 8 |
| CC(C)(C)c1cc(NC(=O)CCCN=C(N)N)c(SCCc2ccccc2)c(NC(=O)CCCN=C(N)N)c1 [IRI-N-19025, N,N′-(5-(tert-butyl)-2-(phenethylthio)-1,3-phenylene)bis(4-((diaminomethylene)amino)butanamide)] | 1.9 ± 1.1 |  |  |  |  |  | −8 ± 5 | −55 ± 9 | −50 ± 10 |
| CC(C)(C)c1cc(NC(=O)CCN=C(N)N)c(SCCc2ccccc2)c(NC(=O)CCN=C(N)N)c1 [IRI-N-19001, N,N′-(5-(tert-butyl)-2-(phenethylthio)-1,3-phenylene)bis(3-((diaminomethylene)amino)propanamide)] | 1.0 ± 0.4 | 45 | 37 | 33 | 26 | 10 | −10 ± 3 | −61 ± 5 | −55 ± 12 |
| N,N′-(2-(benzylthio)-5-(tert-butyl)-1,3-(phenylene)bis(3-((diaminomethylene)amino) propanamide) [IRI-N-19002] | 1.4 ± 0.5 | 48 | 42 | 36 | 31 | 13 | −9 ± 4 | −60 ± 6 | −54 ± 9 |
